Experimental data from patent US11485776B2, “Antibodies against infectious diseases” (priority 2015, dated 2022).
≈ marks a conversion by molar mass, not a printed value.

Assays:
Type in all cases: cell-based
C. tropicalis = experiment: MIC test strips, clinical C. tropicalis
Description: (§1) C. albicans (SC 5314), C. kruesi (clinical isolate), C. tropicalis (BCRC 20520), C. parapsilosis (BCRC 20515) and C. glabrate (BCRC 20586) were kindly provided by Dr. Ching-Hua Su from Taipei Medical University, Taipei, Taiwan. […] Candida species were cultured in YPD medium and their identities were confirmed by CHROMagar Candida plate (CHROMagar, Paris, France).

C. glabrate = experiment: MIC test strips, clinical C. glabrate
Description: as §1

C. parapsilosis = experiment: MIC test strips, clinical C. parapsilosis
Description: as §1

C. albicans = experiment: MIC test strips, clinical C. albicans
Description: as §1

[1] = specimen CT11-52, C. tropicalis
[2] = specimen CT12-54, C. tropicalis
[3] = specimen CP6-20, C. parapsilosis
[4] = specimen CP7-17, C. parapsilosis
[5] = specimen CP8-48, C. parapsilosis

Compound: OC(Cn1cncn1)(Cn1cncn1)c1ccc(F)cc1F [fluconazole]
- Interpretation (C. tropicalis; specimen CT6-29, C. tropicalis): R
- MIC (C. tropicalis; specimen CT6-29, C. tropicalis): 32 µg/ml
- Interpretation (C. tropicalis; specimen CT6-50, C. tropicalis): R
- MIC (C. tropicalis; specimen CT6-50, C. tropicalis): 8 µg/mL (≈ 26.1 µM)
- Interpretation (C. tropicalis; [1]): R
- MIC (C. tropicalis; [1]): 32 µg/ml
- Interpretation (C. tropicalis; [2]): R
- MIC (C. tropicalis; [2]): 8 µg/mL (≈ 26.1 µM)
- Interpretation (C. glabrate; specimen CG5-8, C. glabrate): R
- MIC (C. glabrate; specimen CG5-8, C. glabrate): 64 µg/mL (≈ 209 µM)
- Interpretation (C. glabrate; specimen CG5-66, C. glabrate): S
- MIC (C. glabrate; specimen CG5-66, C. glabrate): 16 µg/mL (≈ 52.2 µM)
- Interpretation (C. glabrate; specimen CG7-37, C. glabrate): S
- MIC (C. glabrate; specimen CG7-37, C. glabrate): 32 µg/ml
- Interpretation (C. glabrate; specimen CG8-11, C. glabrate): R
- MIC (C. glabrate; specimen CG8-11, C. glabrate): 64 µg/mL (≈ 209 µM)
- Interpretation (C. parapsilosis; [3]): R
- MIC (C. parapsilosis; [3]): 16 µg/mL (≈ 52.2 µM)
- Interpretation (C. parapsilosis; [4]): S
- MIC (C. parapsilosis; [4]): 8 µg/mL (≈ 26.1 µM)
- Interpretation (C. parapsilosis; specimen CP8-20, C. parapsilosis): R
- Interpretation (C. parapsilosis; [5]): S
- MIC (C. parapsilosis; [5]): 4 µg/mL (≈ 13.1 µM)
- Interpretation (C. parapsilosis; specimen CP12-37, C. parapsilosis): R
- Interpretation (C. albicans; specimen CA6-17, C. albicans): R
- MIC (C. albicans; specimen CA6-17, C. albicans, read at 80% inhibition): 16 µg/mL (≈ 52.2 µM)
- Interpretation (C. albicans; specimen CA7-3, C. albicans): S
- MIC (C. albicans; specimen CA7-3, C. albicans): 2 µg/mL (≈ 6.53 µM)
- Interpretation (C. albicans; specimen CA7-26, C. albicans): R
- MIC (C. albicans; specimen CA7-26, C. albicans): 8 µg/mL (≈ 26.1 µM)
- Interpretation (C. albicans; specimen CA7-30, C. albicans): S
- MIC (C. albicans; specimen CA7-30, C. albicans): 1 µg/mL (≈ 3.27 µM)
- Interpretation (C. albicans; specimen CA10-50, C. albicans): S
- MIC (C. albicans; specimen CA10-50, C. albicans): 2 µg/mL (≈ 6.53 µM)
- Interpretation (C. albicans; specimen CA10-65, C. albicans): S
- MIC (C. albicans; specimen CA10-65, C. albicans): 1 µg/mL (≈ 3.27 µM)
